Test results from publication PMC9267955, “Antidiabetic, Antiglycation, and Antioxidant Activities of Ethanolic Seed Extract of Passiflora edulis and Piceatannol In Vitro” (Molecules, 2022).
Marks after values point to notes of the source that are not given here.

Legend:
[1] = system: BEAS-2B cells; experiment: MTS cell viability assay; format: cell-based, human; settings: 100 µg/mL (409 µM); 24 h
Experimental: BEAS-2B, MCF10-A, and AML-12, cells were purchased from the American Tissue Type Culture Collection (ATCC; CRL-9609, CRL-10317, and CRL-2254) and cultured with a specific medium. BEAS-2B cells were cultured with LHC-9 media at 37 °C in an incubator with 5% CO2. […] Cells were grown to around 70% confluence on the culture flask, and passages (<10) were employed for all experimental conditions. MTS Cell Titer 96™ aqueous cell proliferation assay was used to determine cell viability. […] For that, 1 × 10^4 cells were plated on a 96-well plate with a growth medium of 100 μL/well. […] Fifteen microliters of MTS reagent (with PMS) was then added to each well and incubated for 3 h in the dark. Absorbance was recorded at 490 nm using a microplate reader (Infinite® 200 PRO, TECAN, Männedorf, Switzerland). For each experiment, cells with DMSO media served as control, and cells with only culture medium and MTS reagent served as the blank.

[2] = target: T1, DPP-4 human recombinant enzyme (Homo sapiens, UniProt P27487); experiment: DPP-4 inhibition assay; format: biochemical; settings: mean ± SD, triplicates
T1 construct: purchased Sigma-Aldrich (Oakville, ON, Canada)
T1 sequence (P27487 whole entry): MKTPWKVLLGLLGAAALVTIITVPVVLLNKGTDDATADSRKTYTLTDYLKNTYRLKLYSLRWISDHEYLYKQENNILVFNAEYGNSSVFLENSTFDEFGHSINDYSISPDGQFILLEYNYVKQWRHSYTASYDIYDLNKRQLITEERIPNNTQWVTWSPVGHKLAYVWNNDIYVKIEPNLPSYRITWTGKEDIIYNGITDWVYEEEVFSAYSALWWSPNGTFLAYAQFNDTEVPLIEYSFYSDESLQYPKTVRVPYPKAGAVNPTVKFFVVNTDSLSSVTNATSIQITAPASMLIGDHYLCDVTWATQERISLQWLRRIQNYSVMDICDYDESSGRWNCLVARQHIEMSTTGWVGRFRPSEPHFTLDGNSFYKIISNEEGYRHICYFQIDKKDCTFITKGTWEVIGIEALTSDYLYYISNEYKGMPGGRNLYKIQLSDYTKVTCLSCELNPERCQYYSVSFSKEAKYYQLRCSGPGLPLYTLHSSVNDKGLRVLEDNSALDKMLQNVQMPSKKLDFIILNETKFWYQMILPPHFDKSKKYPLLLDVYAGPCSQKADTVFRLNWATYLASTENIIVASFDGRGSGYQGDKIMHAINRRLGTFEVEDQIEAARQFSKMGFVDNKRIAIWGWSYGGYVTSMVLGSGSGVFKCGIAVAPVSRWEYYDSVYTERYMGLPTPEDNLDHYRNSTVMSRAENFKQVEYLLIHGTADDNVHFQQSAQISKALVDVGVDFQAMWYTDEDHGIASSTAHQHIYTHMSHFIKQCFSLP
Experimental: The DPP-4 inhibition assay was performed according to an established method. […] The reaction mixture was incubated for 30 min in the dark at 37 °C. Then, the fluorescent product was recorded at excitation/emission wavelengths of 350/450 nm using the microplate reader (Infinite® 200 PRO, TECAN, Männedorf, Switzerland). […] The percentage of the DPP-4 inhibition and IC50 was calculated as described in Section 3.3.1.

[3] = system: MCF-10A cells; experiment: Intracellular ROS level (DCFH-DA) after NNKOAc; format: cell-based; settings: 50 µg/mL, 3 h pretreatment; NNKOAc 100 µM
Experimental: The generation of intracellular ROS in BEAS-2B, AML-12, and MCF-10A cells after treatments was measured as described previously. Briefly, DCFH-DA dye was readily taken up by cells and is subsequently hydrolyzed to DCFH, which can be oxidized to a measurable fluorescent product dichlorofluorescein (DCF). […] Cells with DMSO media (0.5%) served as the vehicle control. After treatments, DCFH-DA was added to the cell culture plates at a final concentration of 5 μM followed by 40 min incubation at dark. The fluorescence […] was then measured at an excitation and emission wavelength of 485 nm and 535 nm, using a microplate reader (Infinite® 200 PRO, TECAN, Männedorf, Switzerland).
BEAS-2B, MCF10-A, and AML-12, cells were purchased from the American Tissue Type Culture Collection (ATCC; CRL-9609, CRL-10317, and CRL-2254) and cultured with a specific medium. BEAS-2B cells were cultured with LHC-9 media at 37 °C in an incubator with 5% CO2. Culture flasks (polystyrene T75) were pre-coated with a mixture of 0.01 mg/mL fibronectin, 0.03 mg/mL bovine collagen type I, and 0.01 mg/mL bovine serum albumin were dissolved in LHC-9 medium overnight. […]

[4] = system: diabetic mice; design: method as in doi:10.32604/biocell.2020.08955; settings: cited from earlier work
[5] = system: BSA/MGO fluorescent AGEs; experiment: Inhibition of AGE formation, intermediate stage of glycation (BSA/MGO); format: biochemical, bovine; settings: BSA/MGO model
Experimental: The BSA-MGO assay was based on those described before, with some modifications. This experiment is based on the formation of fluorescent AGEs from the middle stage of protein glycation. MGO (1.5 mM) and BSA (3 mg/mL) were dissolved separately in 0.05 M phosphate buffer (pH 7.4) containing NaCl (100 mM) and NaN3 (0.02% w/v). Then, 300 μL of MGO was incubated with samples at different concentrations (dissolved in a buffer containing 60% ethanol) for an hour at 37 °C, in the dark, with constant stirring. After BSA (3 mg/mL) was added to the reaction mixture and incubation time was extended to 48 h at 37 °C in darkness. The rest of the procedure was the same as that for the BSA-glucose/fructose model that is described above. The percentage of the AGE inhibition and IC50 was calculated as described in Section 3.3.1.

[6] = target: T2, alpha-amylase from porcine pancreas (Sus scrofa, UniProt P00690); experiment: Alpha-amylase inhibition assay; format: biochemical; settings: pancreatic alpha-amylase; mean ± SD, triplicates
T2 construct: alpha-amylase from porcine pancreas; purchased Sigma-Aldrich (Oakville, ON, Canada); host or cells: porcine pancreas
T2 sequence (P00690 16-511): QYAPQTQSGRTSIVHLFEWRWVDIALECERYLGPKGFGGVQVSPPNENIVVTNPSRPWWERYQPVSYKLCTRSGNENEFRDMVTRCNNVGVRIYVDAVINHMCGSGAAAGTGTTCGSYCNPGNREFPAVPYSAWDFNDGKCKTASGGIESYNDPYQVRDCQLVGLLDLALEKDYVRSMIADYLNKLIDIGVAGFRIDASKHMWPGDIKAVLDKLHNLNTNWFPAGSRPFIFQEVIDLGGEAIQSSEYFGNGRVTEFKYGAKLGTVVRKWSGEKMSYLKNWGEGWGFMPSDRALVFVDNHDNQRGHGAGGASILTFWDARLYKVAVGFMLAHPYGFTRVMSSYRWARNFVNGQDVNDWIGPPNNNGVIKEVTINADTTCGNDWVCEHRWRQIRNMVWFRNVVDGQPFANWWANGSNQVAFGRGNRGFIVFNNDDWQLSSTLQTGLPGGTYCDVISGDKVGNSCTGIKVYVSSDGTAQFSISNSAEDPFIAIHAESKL
Experimental: Plant extract screening for alpha-amylase inhibition was conducted using the previously described method [46], with some modifications. Except as otherwise indicated, solutions were prepared in 0.01 M potassium phosphate buffer containing sodium chloride (60 mM) and sodium azide (0.02% w/v), pH 6.8. […] After 10 min of incubation at 37 °C, 20 µL of the substrate 2-chloro-4-nitrophenyl-α-D-maltotrioside (5 mM) was added. The mixture was then incubated for 30 min at 37 °C for the reaction to take place. The reaction was terminated by adding 240 µL of trisodium phosphate solution of pH 11 (1% w/v) to stop enzyme activity. […] The positive control was a mixture of enzyme and substrate without inhibitors. Sample control containing sample and buffer was used to eliminate color interference. Buffer was used as blank. The percentage of the alpha-amylase inhibition was calculated as I% = [(Abs0 − Abs1)/Abs0] × 100, where A0 is the absorbance of the positive control subtracted from the blank, Abs 1 is the absorbance in the presence of the extract subtracted from sample control. The IC50 (half-maximal inhibitory concentration) was calculated graphically, using an analytical curve by plotting the concentration versus the inhibition percentage (I%).

[7] = target: alpha-glucosidase; design: method as in PMID 31986026; settings: cited from earlier work

Oc1cc(O)cc(/C=C/c2ccc(O)c(O)c2)c1 [PIC, 3,3′,4′,5-trans-tetrahydroxystilbene]
Reduction of cell viability of BEAS-2B cells [1]: approximately 50% | IC50 [2]: 4660 µM | Protection from oxidative stress (ROS) caused by the carcinogen, MCF-10A [3]: able to protect | Blood glucose, diabetic mice [4]: lowered the blood glucose | Glucose tolerance, diabetic mice [4]: improved glucose tolerance | Antiglycation IC50, MGO [5]: 67.4 ± 4.6 ^b μg/mL | IC50 [6]: 350 µM | IC50 [7]: 4.3 ± 0.07 µM
